Results taken from patent publication US9980976B2, “Use of REDD1 inhibitors to dissociate therapeutic and adverse atrophogenic effects of glucocorticoid receptor agonists” (Northwestern University, priority 2015, dated 2018).

Assays:
mTOR = mTOR activity in mouse skin (phosphorylation of 4E-BP1 and rpS6, phospho-mTOR Ser2448); format: in vivo; settings: B6D2 mice, topical FA
Text: Because REDD1 is a known inhibitor of mTOR signaling (Sofer et al, 2005; Wang et al, 2006; DeYoung et al, 2008; Shimizu et al, 2011), we tested whether FA inhibits mTOR activity in the skin. In previous studies, mTOR activity has been monitored by phosphorylation of its major substrates, 4E-BP1 (eukaryotic initiation factor 4E binding protein 1) and S6K1 (ribosomal p70/S6 kinase 1) as well as ribosomal protein S6 (rpS6), a substrate of S6K1 (Checkley et al, 2011). As basal level of S6K1 phosphorylation was low in skin of B6D2 mice, we used 4E-BP1 and rpS6 as preferred markers. […] Moreover, there was an inverse correlation between phosphorylation of mTOR targets and REDD1 expression in the epidermis. By the time when REDD1 expression reached its peak (8 h after 1st and 2nd FA applications), the repression of mTOR activity by FA was most pronounced (FIGS. 2A, B). We further confirmed this inverse correlation using immunostaining for REDD1 and active, phosphorylated at Ser2448 mTOR (FIG. 2A). […]

FKBP51 and GILZ = test: Q-PCR analysis of GR target genes FKBP51 and GILZ in HaCaT and CEM cells; format: cell-based, human; settings: FA 1 uM 24 h
Description: FIG. 13. Rapamycin inhibits GR transactivation. A, B. Q-PCR analysis of FKBP51 and GILZ expression in HaCaT (A) and CEM (B) cells. Cells were pretreated with solvent or Rapa (1 uM)×6 hrs and treated with solvent (Control) or FA (1 uM) for 24 h. A,B. Q-PCR results were normalized to the expression of the housekeeping Rp127 gene, and presented as fold of change compared to control cells. The means+/−SD calculated for three individual RNA samples/condition. a—Statistically significant difference (P<0.05) compared to control; b—Statistically significant differences (P<0.05) compared to FA treatment. C. Inhibitory effect of rapamycin on GRE.Luciferase reporter. […] The means+SD were calculated for three individual wells/group in one representative experiment (out of three experiments). a—Statistically significant differences (P<0.05) in comparison to vehicle treatment; b—Statistically significant differences (P<0.05) in comparison to FA treatment.
Total RNA from murine epidermis, whole human skin, and cell cultures was isolated with RiboPure kit (Ambion, Life Technologies, Grand Island, N.Y., USA). […] The gene expression was assessed using semi-quantitative two-step RT-PCR and quantitative Q-PCR. […] For semi-quantitative PCRs, Taq DNA polymerase (Promega) was used, and PCR products were separated on 1.5% agarose gel and visualized using automated imaging system (Bio-Rad, Hercules, Calif., USA). […]

GR [1] = test: GR nuclear translocation (immunofluorescence in HaCaT, Western blot of nuclear extracts in CEM); format: cell-based, human; settings: HaCaT cells, 1 uM FA
Description: (§1) FIG. 15. Rapamycin inhibits GR nuclear translocation and phosphorylation. A. GR nuclear translocation in HaCaT cells was determined by immunofluorescence as described in Materials and Methods. Cells on coverslips were pretreated with solvent (Control) or Rapamycin (1 uM×6 h) and treated with 1 uM FA for indicated time. B. GR nuclear translocation in CEM cells was determined by Western blot analysis of nuclear protein extracts. Membranes were probed with anti-HDAC-1 antibodies to verify equal protein loading and transfer. C, D. GR phosphorylation in HaCaT (C) and CEM (D) cells was determined by Western blot analysis of whole cell lysates. Membranes were probed with anti-GAPDH antibodies to verify equal protein loading and transfer.
GR nuclear translocation was determined by immunofluorescence in HaCaT cells. Cells infected with pGIPZ and shREDD1 lentiviruses were selected with puromycin, seeded on coverslips. After the treatments, cells were fixed with 2% formaldehyde and permeabilized with acetone:methanol (1:1 v/v). After blocking, cells were incubated with primary rabbit anti-GR antibody (H-300, Santa Cruz Biotechnology, Santa Cruz, Calif., USA) followed by secondary anti-rabbit FITC-conjugated antibody (Jackson Immuno Research). Cell nuclei were counterstained with DAPI (Invitrogen, Life Technologies, Grand Island, N.Y., USA). […]

GR [2] = test: GR phosphorylation at Ser211 (Western blot) in HaCaT and CEM cells; format: cell-based, human; settings: 1 uM FA
Description: as §1
The whole-cell protein extracts were prepared using RIPA buffer with protease and phosphatase inhibitor cocktails (Thermo Scientific, Thermo Fisher Scientific Inc., Waltham, Mass., USA), resolved by SDS-PAGE on 4-20% gels and transferred to Odyssey nitrocellulose membranes (LI-COR Biosciences, Lincoln, Neb., USA). Membranes were blocked with Odyssey Blocking Buffer and incubated with primary antibodies overnight at 4° C., followed by IRDye® secondary antibodies (LI-COR Biosciences). LI-COR Odyssey Imager was used for the band visualization. […]

## CC1(C)O[C@@H]2C[C@H]3[C@@H]4C[C@H](F)C5=CC(=O)C=C[C@]5(C)[C@@]4(F)[C@@H](O)C[C@]3(C)[C@]2(C(=O)CO)O1 [FA, fluocinolone acetonide]
mTOR
  mTOR activity in the skin: blocked mTOR activity
FKBP51 and GILZ
  FKBP51 and GILZ expression: strongly activated
GR [1]
  time GR remained in the nucleus: 2 to 24 h
  time to GR nuclear import: 10 min
GR [2]
  GR phosphorylation at Ser211: induced quick GR phosphorylation
